Measured values: patent US20100298141A1, “SUBSTITUTED PYRIDINE N-OXIDE HERBICIDES” (E. I. DU PONT DE NEMOURS AND COMPANY, priority 2007, published 2010)

What was measured:
wheat [1] = test: Test A pre-/postemergence greenhouse test; assay type: in vivo, Triticum aestivum; conditions: for Plant response rating, Wheat: 0 to 100 scale where 0 is no effect and 100 is complete control; for Wheat plant response rating: 0 to 100 scale
Outline: (§1)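 Greenhouse herbicide screen, pre- and postemergence in parallel. Soil: loam plus sand. Formulation: non-phytotoxic solvent mix with surfactant. Postemergence stage: one to two leaves, 2–10 cm height. Evaluation: visual injury, compared with untreated controls, about 10 days after treatment.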

yellow nutsedge = test: Test C pre-/postemergence test; assay type: in vivo, Cyperus esculentus; conditions: for Plant response rating, Nutsedge, Yellow: 31 g ai/ha, scale 0 to 100 (0 no effect, 100 complete control)
Outline: (§2)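 Compounds in a non-phytotoxic solvent with surfactant applied preemergence to seeded pots and, at the same time, postemergence to plants 2–18 cm tall (1- to 4-leaf stage). Paddy tests: pots flooded to 3 cm, compound applied into the water, depth held throughout.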

giant foxtail = test: Test C pre-/postemergence test; assay type: in vivo, Setaria faberii
Outline: as §2

wild oat = test: Test C pre-/postemergence test; assay type: in vivo, Avena fatua; conditions: for Plant response rating, Oat, Wild: 31 g ai/ha, scale 0 to 100 (0 no effect, 100 complete control)
Outline: as §2

johnsongrass = test: Test C pre-/postemergence test; assay type: in vivo, Sorghum halepense; conditions: for Plant response rating, Johnsongrass: 31 g ai/ha, scale 0 to 100 (0 no effect, 100 complete control)
Outline: as §2

downy brome = test: Test C pre-/postemergence test; assay type: in vivo, Bromus tectorum; conditions: for Plant response rating, Bromegrass, Downy: 31 g ai/ha, scale 0 to 100 (0 no effect, 100 complete control)
Outline: as §2

redroot pigweed = test: Test A pre-/postemergence greenhouse test; assay type: in vivo, Amaranthus retroflexus; conditions: for Plant response rating, Pigweed: 0 to 100 scale where 0 is no effect and 100 is complete control; for Pigweed plant response rating: 0 to 100 scale
Outline: as §1

catchweed bedstraw = test: Test C pre-/postemergence test; assay type: in vivo, Galium aparine; conditions: for Plant response rating, Galium: 31 g ai/ha, scale 0 to 100 (0 no effect, 100 complete control)
Outline: as §2

corn = test: Test C pre-/postemergence test; assay type: in vivo, Zea mays; conditions: for Plant response rating, Corn: 31 g ai/ha, scale 0 to 100 (0 no effect, 100 complete control)
Outline: as §2

duck salad = test: Test C flooded paddy test; assay type: in vivo, Heteranthera limosa; conditions: Flood
Outline: (§3)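 Ratings were visual and made relative to untreated controls after 13 to 15 greenhouse days.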

velvetleaf [2] = test: Test C pre-/postemergence test; assay type: in vivo, Abutilon theophrasti; conditions: for Plant response rating, Velvetleaf: 31 g ai/ha, scale 0 to 100 (0 no effect, 100 complete control)
Outline: as §2

morningglory = test: Test C pre-/postemergence test; assay type: in vivo, Ipomoea coccinea; conditions: for Plant response rating, Morningglory: 31 g ai/ha, scale 0 to 100 (0 no effect, 100 complete control)
Outline: as §2

woolly cupgrass = test: Test C pre-/postemergence test; assay type: in vivo, Eriochloa villosa; conditions: for Plant response rating, Cupgrass, Woolly: 31 g ai/ha, scale 0 to 100 (0 no effect, 100 complete control)
Outline: as §2

eastern black nightshade = test: Test C pre-/postemergence test; assay type: in vivo, Solanum ptycanthum; conditions: for Plant response rating, Nightshade: 31 g ai/ha, scale 0 to 100 (0 no effect, 100 complete control)
Outline: as §2

wheat [3] = test: Test C pre-/postemergence test; assay type: in vivo, Triticum aestivum; conditions: for Plant response rating, Wheat: 31 g ai/ha, scale 0 to 100 (0 no effect, 100 complete control)
Outline: as §2

rice = test: Test C flooded paddy test; assay type: in vivo, Oryza sativa; conditions: Flood
Outline: as §3

velvetleaf [4] = test: Test A pre-/postemergence greenhouse test; assay type: in vivo, Abutilon theophrasti; conditions: for Plant response rating, Velvetleaf: 0 to 100 scale where 0 is no effect and 100 is complete control; for Velvetleaf plant response rating: 0 to 100 scale
Outline: as §1

[5] = Postemergence, 500 g ai/ha, 0 is no effect, 100 is complete control
[6] = Preemergence, 125 g ai/ha, 0 no effect, 100 complete control
[7] = Preemergence, 500 g ai/ha, 0 no effect, 100 complete control
[8] = 62 g ai/ha, Preemergence, scale 0 to 100
[9] = 125 g ai/ha, preemergence, scale 0 (no effect) to 100 (complete control)
[10] = preemergence, 250 g ai/ha, scale 0 (no effect) to 100 (complete control)
[11] = 62 g ai/ha, scale 0 to 100 (0 no effect, 100 complete control)
[12] = 250 g ai/ha, scale 0 to 100, 0 no effect, 100 complete control, 13 to 15 days
[13] = Postemergence, 125 g ai/ha, 0 is no effect, 100 is complete control
[14] = preemergence, 125 g ai/ha, scale 0 (no effect) to 100 (complete control)
[15] = 31 g ai/ha, scale 0 to 100 (0 no effect, 100 complete control)
[16] = 62 g ai/ha, scale 0 to 100, 0 no effect, 100 complete control, 13 to 15 days
[17] = 125 g ai/ha, scale 0 to 100, 0 no effect, 100 complete control, 13 to 15 days
[18] = 250 g ai/ha, scale 0 to 100 (0 no effect, 100 complete control)

## Cc1cc[n+]([O-])c(S(=O)(=O)Cc2c(C(F)(F)C(F)(F)F)nn(C)c2OCC(F)(F)F)c1 [Compound 99]
Wheat [1]; Postemergence, 125 g ai/ha
  Plant response rating, Wheat: 50
Wheat [1]; [5]
  Wheat plant response rating: 70
Wheat [1]; [6]
  Wheat plant response rating: 50
Wheat [1]; [7]
  Wheat plant response rating: 90
Yellow nutsedge; [8]
  Nutsedge, Yellow plant response rating: 60
Yellow nutsedge; [9]
  Nutsedge, Yellow plant response rating: 60
Yellow nutsedge; Preemergence
  Plant response rating, Nutsedge, Yellow: 0
Yellow nutsedge; [10]
  Nutsedge, Yellow plant response rating: 80
Giant foxtail; [8]
  Foxtail, Giant plant response rating: 85
Giant foxtail; [9]
  Foxtail, Giant plant response rating: 100
Giant foxtail; [10]
  Foxtail, Giant plant response rating: 100
Wild oat; [8]
  Oat, Wild plant response rating: 80
Wild oat; [9]
  Oat, Wild plant response rating: 95
Wild oat; Preemergence
  Plant response rating, Oat, Wild: 30
Wild oat; [10]
  Oat, Wild plant response rating: 95
johnsongrass; [8]
  Johnsongrass plant response rating: 90
johnsongrass; [9]
  Johnsongrass plant response rating: 100
johnsongrass; Preemergence
  Plant response rating, Johnsongrass: 40
johnsongrass; [10]
  Johnsongrass plant response rating: 100
Downy brome; [8]
  Bromegrass, Downy plant response rating: 50
Downy brome; [9]
  Bromegrass, Downy plant response rating: 60
Downy brome; Preemergence
  Plant response rating, Bromegrass, Downy: 30
Downy brome; [10]
  Bromegrass, Downy plant response rating: 70
Redroot pigweed; Postemergence, 125 g ai/ha
  Plant response rating, Pigweed: 10
Redroot pigweed; [5]
  Pigweed plant response rating: 60
Redroot pigweed; [6]
  Pigweed plant response rating: 100
Redroot pigweed; [7]
  Pigweed plant response rating: 100
Catchweed bedstraw; [8]
  Galium plant response rating: 100
Catchweed bedstraw; [9]
  Galium plant response rating: 100
Catchweed bedstraw; Preemergence
  Plant response rating, Galium: 100
Catchweed bedstraw; [10]
  Galium plant response rating: 100
corn; [8]
  Corn plant response rating: 0
corn; [9]
  Corn plant response rating: 30
corn; Preemergence
  Plant response rating, Corn: 0
corn; [10]
  Corn plant response rating: 50
Duck salad; [11]
  Plant response rating, Ducksalad: 0
Duck salad; [12]
  Plant response rating, Ducksalad: 65
Velvetleaf [2]; [8]
  Velvetleaf plant response rating: 80
Velvetleaf [2]; [9]
  Velvetleaf plant response rating: 100
Velvetleaf [2]; Preemergence
  Plant response rating, Velvetleaf: 0
Velvetleaf [2]; [10]
  Velvetleaf plant response rating: 100
morningglory; [8]
  Morningglory plant response rating: 100
morningglory; [9]
  Morningglory plant response rating: 100
morningglory; Preemergence
  Plant response rating, Morningglory: 65
morningglory; [10]
  Morningglory plant response rating: 100
Woolly cupgrass; [8]
  Cupgrass, Woolly plant response rating: 0
Woolly cupgrass; [9]
  Cupgrass, Woolly plant response rating: 70
Woolly cupgrass; Preemergence
  Plant response rating, Cupgrass, Woolly: 0
Woolly cupgrass; [10]
  Cupgrass, Woolly plant response rating: 85
Eastern black nightshade; [8]
  Nightshade plant response rating: 98
Eastern black nightshade; [9]
  Nightshade plant response rating: 100
Eastern black nightshade; Preemergence
  Plant response rating, Nightshade: 90
Eastern black nightshade; [10]
  Nightshade plant response rating: 100
Wheat [3]; [8]
  Wheat plant response rating: 55
Wheat [3]; [9]
  Wheat plant response rating: 55
Wheat [3]; Preemergence
  Plant response rating, Wheat: 25
Wheat [3]; [10]
  Wheat plant response rating: 95
rice; [11]
  Plant response rating, Rice: 0
rice; [12]
  Plant response rating, Rice: 45
Velvetleaf [4]; Postemergence, 125 g ai/ha
  Plant response rating, Velvetleaf: 30
Velvetleaf [4]; [5]
  Velvetleaf plant response rating: 60
Velvetleaf [4]; [6]
  Velvetleaf plant response rating: 20
Velvetleaf [4]; [7]
  Velvetleaf plant response rating: 100

## Cn1nc(C(F)(F)F)c(C[S+]([O-])c2ccc(Cl)c[n+]2[O-])c1Cl (racemic) [Compound 17]
Wheat [1]; [13]
  Wheat plant response rating: 50
Wheat [1]; [5]
  Wheat plant response rating: 60
Wheat [1]; [6]
  Wheat plant response rating: 50
Wheat [1]; Preemergence, 500 g ai/ha
  Plant response rating, Wheat: 80
Yellow nutsedge; [8]
  Nutsedge, Yellow plant response rating: 80
Yellow nutsedge; Preemergence
  Plant response rating, Nutsedge, Yellow: 70
Giant foxtail; [8]
  Foxtail, Giant plant response rating: 100
Giant foxtail; Preemergence, 31 g ai/ha, scale 0 to 100 (0 no effect, 100 complete control)
  Plant response rating, Foxtail, Giant: 95
Giant foxtail; Preemergence, 250 g ai/ha
  Plant response rating (0 to 100), Foxtail, Giant: 100
Wild oat; [8]
  Oat, Wild plant response rating: 40
Wild oat; Preemergence
  Plant response rating, Oat, Wild: 0
johnsongrass; [8]
  Johnsongrass plant response rating: 100
johnsongrass; Preemergence
  Plant response rating, Johnsongrass: 98
johnsongrass; Preemergence, 250 g ai/ha
  Plant response rating (0 to 100), Johnsongrass: 100
Downy brome; [8]
  Bromegrass, Downy plant response rating: 40
Downy brome; Preemergence
  Plant response rating, Bromegrass, Downy: 40
Downy brome; Preemergence, 250 g ai/ha
  Plant response rating (0 to 100), Bromegrass, Downy: 85
Downy brome; [14]
  Bromegrass, Downy plant response rating: 80
Redroot pigweed; [13]
  Pigweed plant response rating: 40
Redroot pigweed; [5]
  Pigweed plant response rating: 80
Redroot pigweed; [6]
  Pigweed plant response rating: 100
Redroot pigweed; Preemergence, 500 g ai/ha
  Plant response rating, Pigweed: 100
Catchweed bedstraw; Preemergence
  Plant response rating, Galium: 100
Catchweed bedstraw; Preemergence, 250 g ai/ha
  Plant response rating (0 to 100), Galium: 100
corn; [8]
  Corn plant response rating: 85
corn; Preemergence
  Plant response rating, Corn: 60
corn; Preemergence, 250 g ai/ha
  Plant response rating (0 to 100), Corn: 100
corn; [14]
  Corn plant response rating: 98
Duck salad; [15]
  Plant response rating, Ducksalad: 60
Duck salad; [16]
  Plant response rating, Ducksalad: 80
Duck salad; [17]
  Plant response rating, Ducksalad: 85
Duck salad; [18]
  Plant response rating, Ducksalad: 95
Velvetleaf [2]; [8]
  Velvetleaf plant response rating: 80
Velvetleaf [2]; Preemergence
  Plant response rating, Velvetleaf: 0
morningglory; [8]
  Morningglory plant response rating: 85
morningglory; Preemergence
  Plant response rating, Morningglory: 0
Woolly cupgrass; [8]
  Cupgrass, Woolly plant response rating: 100
Woolly cupgrass; Preemergence
  Plant response rating, Cupgrass, Woolly: 95
Woolly cupgrass; Preemergence, 250 g ai/ha
  Plant response rating (0 to 100), Cupgrass, Woolly: 100
Eastern black nightshade; [8]
  Nightshade plant response rating: 100
Eastern black nightshade; Preemergence
  Plant response rating, Nightshade: 98
Wheat [3]; [8]
  Wheat plant response rating: 30
Wheat [3]; Preemergence
  Plant response rating, Wheat: 10
rice; [15]
  Plant response rating, Rice: 0
rice; [16]
  Plant response rating, Rice: 70
rice; [17]
  Plant response rating, Rice: 75
rice; [18]
  Plant response rating, Rice: 80
Velvetleaf [4]; [13]
  Velvetleaf plant response rating: 50
Velvetleaf [4]; [5]
  Velvetleaf plant response rating: 80
Velvetleaf [4]; [6]
  Velvetleaf plant response rating: 60
Velvetleaf [4]; Preemergence, 500 g ai/ha
  Plant response rating, Velvetleaf: 100
